Reference: patent publication US10934274B2, “Quinoline derivatives as TAM RTK inhibitors” (Qurient Co., Ltd., priority 2015, dated 2021)
pKd: −log10 of the molar value.

What was measured:
Axl = target: T1, Axl (Homo sapiens, UniProt P30530); experiment: LanthaScreen Eu kinase binding assay, Axl; settings: Tracer 236
T1 construct: purchased Life Technologies
T1 sequence (P30530 26-894): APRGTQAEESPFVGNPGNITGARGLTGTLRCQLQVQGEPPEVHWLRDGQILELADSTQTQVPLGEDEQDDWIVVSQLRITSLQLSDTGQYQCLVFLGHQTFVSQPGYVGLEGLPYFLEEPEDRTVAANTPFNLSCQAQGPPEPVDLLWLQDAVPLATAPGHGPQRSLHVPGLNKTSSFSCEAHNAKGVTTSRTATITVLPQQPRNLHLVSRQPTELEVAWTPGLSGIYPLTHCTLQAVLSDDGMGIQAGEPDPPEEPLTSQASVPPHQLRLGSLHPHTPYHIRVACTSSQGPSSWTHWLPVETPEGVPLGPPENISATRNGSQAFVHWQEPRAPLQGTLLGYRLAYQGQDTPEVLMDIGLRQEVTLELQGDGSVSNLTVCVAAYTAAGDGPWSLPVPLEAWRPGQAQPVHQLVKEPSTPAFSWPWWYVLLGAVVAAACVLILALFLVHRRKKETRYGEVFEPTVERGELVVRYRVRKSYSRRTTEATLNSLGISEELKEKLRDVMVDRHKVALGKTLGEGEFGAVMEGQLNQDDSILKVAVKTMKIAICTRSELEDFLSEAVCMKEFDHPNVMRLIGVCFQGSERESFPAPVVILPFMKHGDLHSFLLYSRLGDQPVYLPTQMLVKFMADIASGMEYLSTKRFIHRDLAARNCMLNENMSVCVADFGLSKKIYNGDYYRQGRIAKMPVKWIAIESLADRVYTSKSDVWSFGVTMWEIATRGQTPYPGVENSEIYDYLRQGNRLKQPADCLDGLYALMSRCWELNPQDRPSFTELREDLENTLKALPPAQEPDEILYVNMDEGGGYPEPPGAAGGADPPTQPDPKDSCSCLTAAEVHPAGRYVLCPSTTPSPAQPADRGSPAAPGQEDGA

TYRO3 = target: T2, TYRO3 (Homo sapiens, UniProt Q06418); experiment: LanthaScreen Eu kinase binding assay, TYRO3; settings: Tracer 236
T2 construct: purchased Life Technologies
T2 sequence (Q06418 41-890): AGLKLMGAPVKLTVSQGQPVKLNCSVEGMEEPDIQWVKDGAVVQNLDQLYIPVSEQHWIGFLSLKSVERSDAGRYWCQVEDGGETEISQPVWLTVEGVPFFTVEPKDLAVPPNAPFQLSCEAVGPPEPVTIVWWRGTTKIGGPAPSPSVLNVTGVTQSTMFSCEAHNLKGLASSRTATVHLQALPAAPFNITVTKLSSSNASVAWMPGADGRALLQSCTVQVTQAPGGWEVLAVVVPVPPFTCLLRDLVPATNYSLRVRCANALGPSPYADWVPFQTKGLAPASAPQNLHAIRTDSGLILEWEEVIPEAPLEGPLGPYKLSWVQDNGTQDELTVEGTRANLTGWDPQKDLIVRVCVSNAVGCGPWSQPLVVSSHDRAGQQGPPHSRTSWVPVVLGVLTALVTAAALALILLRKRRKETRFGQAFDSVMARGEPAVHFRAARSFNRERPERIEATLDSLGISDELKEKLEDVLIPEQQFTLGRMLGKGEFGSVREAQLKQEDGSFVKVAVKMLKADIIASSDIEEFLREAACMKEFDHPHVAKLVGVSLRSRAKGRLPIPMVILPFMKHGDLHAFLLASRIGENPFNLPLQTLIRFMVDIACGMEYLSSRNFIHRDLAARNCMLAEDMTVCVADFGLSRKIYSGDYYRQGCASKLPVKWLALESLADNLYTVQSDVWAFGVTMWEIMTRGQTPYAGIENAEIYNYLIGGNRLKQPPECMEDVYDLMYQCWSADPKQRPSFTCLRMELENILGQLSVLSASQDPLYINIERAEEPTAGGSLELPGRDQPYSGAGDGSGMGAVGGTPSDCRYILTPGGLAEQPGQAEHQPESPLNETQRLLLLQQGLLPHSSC

Met = target: T3, Met (Homo sapiens, UniProt P08581); experiment: LanthaScreen Eu kinase binding assay, Met; settings: Tracer 236, read-out: cMet kinase binding activity (Kd)
T3 construct: purchased Life Technologies
T3 sequence (P08581 25-1390): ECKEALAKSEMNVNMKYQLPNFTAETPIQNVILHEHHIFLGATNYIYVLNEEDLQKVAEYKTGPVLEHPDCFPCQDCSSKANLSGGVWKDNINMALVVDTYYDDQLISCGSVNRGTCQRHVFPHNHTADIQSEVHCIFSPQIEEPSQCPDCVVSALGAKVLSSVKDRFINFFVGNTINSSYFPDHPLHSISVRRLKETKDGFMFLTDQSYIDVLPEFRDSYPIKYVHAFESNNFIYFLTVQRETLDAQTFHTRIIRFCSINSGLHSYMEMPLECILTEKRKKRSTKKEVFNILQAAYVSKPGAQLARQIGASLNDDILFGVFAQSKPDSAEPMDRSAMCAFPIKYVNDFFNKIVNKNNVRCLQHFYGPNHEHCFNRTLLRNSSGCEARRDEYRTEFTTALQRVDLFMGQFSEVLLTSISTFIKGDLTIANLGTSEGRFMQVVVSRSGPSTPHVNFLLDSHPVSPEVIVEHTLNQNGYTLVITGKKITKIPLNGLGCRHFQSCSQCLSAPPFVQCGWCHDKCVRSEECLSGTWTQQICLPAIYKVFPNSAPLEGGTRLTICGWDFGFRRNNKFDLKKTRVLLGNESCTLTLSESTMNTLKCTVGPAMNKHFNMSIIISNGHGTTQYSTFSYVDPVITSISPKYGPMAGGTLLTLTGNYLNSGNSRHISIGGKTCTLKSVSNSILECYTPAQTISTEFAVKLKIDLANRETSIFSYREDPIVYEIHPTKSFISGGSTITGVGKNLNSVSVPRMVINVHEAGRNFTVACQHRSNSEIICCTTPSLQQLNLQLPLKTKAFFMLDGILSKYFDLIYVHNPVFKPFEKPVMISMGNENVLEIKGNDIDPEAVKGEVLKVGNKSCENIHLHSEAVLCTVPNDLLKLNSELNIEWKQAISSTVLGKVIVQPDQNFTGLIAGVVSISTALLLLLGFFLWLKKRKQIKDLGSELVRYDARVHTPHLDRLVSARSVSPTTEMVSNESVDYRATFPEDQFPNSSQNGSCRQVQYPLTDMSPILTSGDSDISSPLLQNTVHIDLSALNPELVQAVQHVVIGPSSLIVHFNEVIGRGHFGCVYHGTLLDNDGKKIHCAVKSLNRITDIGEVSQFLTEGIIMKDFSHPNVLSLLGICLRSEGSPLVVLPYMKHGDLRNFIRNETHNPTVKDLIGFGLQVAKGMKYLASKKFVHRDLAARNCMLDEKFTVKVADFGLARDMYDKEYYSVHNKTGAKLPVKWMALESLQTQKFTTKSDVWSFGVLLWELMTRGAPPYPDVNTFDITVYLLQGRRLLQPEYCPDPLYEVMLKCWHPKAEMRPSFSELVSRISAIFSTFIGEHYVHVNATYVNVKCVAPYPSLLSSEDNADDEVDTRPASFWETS

HCC827/ER cells = experiment: WST-1 cell viability assay in erlotinib-resistant cells; settings: compound combined with Erlotinib at constant 1:1 ratio, 3 days, FBS 1%
Method: The killed cells were discarded and the remaining cells were cultured in a drug-free medium up to 80% confluence. Subsequently, cells were continuously exposed to increasing drug doses of up to 10 μM over a period of 8 months.
HCC827/ER cells were seeded in a 96-well plate with their respective media containing 10% FBS at 5000 cells/well. After seeding, the HCC827/ER cells were incubated for approximately 24 hours. […] The viability of the HCC827/ER cells was determined by adding WST-1 reagent according to Manufacturer's instructions (DoGenbio co., Ltd) and incubating for four hours. The plates were then read using an absorbance of 440 nm on Tecan Microplate reader (Infinite M200 pro, TECAN). The HCC827/ER cells' viability were calculated relative to vehicle (DMSO) control wells.

| SMILES | pKd (Axl) | pKd (TYRO3) | pKd (Met) | Combination effect of compound and erlotinib on inhibition activity in Erlotinib-resistant cell-line (HCC827/ER cells) |
| --- | --- | --- | --- | --- |
| CCOc1cn(CCOC(F)(F)F)nc1C(=O)Nc1ccc(Oc2ccnc3cc(OC)c(OC)cc23)cn1 [Compound 38] | > 7.00 | 6.00 to 7.00 | > 7.00 | synergistic effect |
| COc1cc2nccc(Oc3ccc(NC(=O)c4nn(-c5ccc(F)cc5C)cc4OCC4CC4)nc3)c2cc1OC [Compound 258] | > 7.00 | > 7.00 | > 7.00 | – |
